Results: PubChem BioAssay (NCI)
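Assay format: 96-well plates, 48-hour exposure. TGI: total growth inhibition.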

Assays:
Assay in all cases: inhibition of tumour cell growth, NCI panel, 48 h
NCI-H522 lung = tested on: NCI-H522 lung
SNB-78 CNS = tested on: SNB-78 CNS
LOX IMVI melanoma = tested on: LOX IMVI melanoma
HL-60(TB) leukemia = tested on: HL-60(TB) leukemia
NCI-H226 lung = tested on: NCI-H226 lung
A498 renal = tested on: A498 renal
SNB-75 CNS = tested on: SNB-75 CNS
COLO 205 colon = tested on: COLO 205 colon
SK-MEL-28 melanoma = tested on: SK-MEL-28 melanoma
HT29 colon = tested on: HT29 colon
RXF 393 renal = tested on: RXF 393 renal
IGROV1 ovarian = tested on: IGROV1 ovarian
UACC-257 melanoma = tested on: UACC-257 melanoma
DMS 114 small cell lung = tested on: DMS 114 small cell lung
UO-31 renal = tested on: UO-31 renal
SK-OV-3 ovarian = tested on: SK-OV-3 ovarian
M14 melanoma = tested on: M14 melanoma
SF-268 CNS = tested on: SF-268 CNS
MOLT-4 leukemia = tested on: MOLT-4 leukemia
HOP-18 NSCLC = tested on: HOP-18 NSCLC
ACHN renal = tested on: ACHN renal
U251 CNS = tested on: U251 CNS
HOP-62 NSCLC = tested on: HOP-62 NSCLC
NCI-H460 lung = tested on: NCI-H460 lung
LXFL 529 NSCLC = tested on: LXFL 529 NSCLC
MALME-3M melanoma = tested on: MALME-3M melanoma
SK-MEL-5 melanoma = tested on: SK-MEL-5 melanoma
UACC-62 melanoma = tested on: UACC-62 melanoma
A549 NSCLC = tested on: A549 NSCLC
K-562 leukemia = tested on: K-562 leukemia
SK-MEL-2 melanoma = tested on: SK-MEL-2 melanoma
SR leukemia = tested on: SR leukemia
CCRF-CEM leukemia = tested on: CCRF-CEM leukemia
KM20L2 colon = tested on: KM20L2 colon
RPMI-8226 leukemia = tested on: RPMI-8226 leukemia
SN12C renal = tested on: SN12C renal
EKVX NSCLC = tested on: EKVX NSCLC
HCT-116 colon = tested on: HCT-116 colon
DLD-1 colon = tested on: DLD-1 colon
TK-10 renal = tested on: TK-10 renal
KM12 colon = tested on: KM12 colon
SW-620 colon = tested on: SW-620 colon
OVCAR-4 ovarian = tested on: OVCAR-4 ovarian
HCC-2998 colon = tested on: HCC-2998 colon
786-0 renal = tested on: 786-0 renal
SF-539 CNS = tested on: SF-539 CNS
DMS 273 small cell lung = tested on: DMS 273 small cell lung
SF-295 CNS = tested on: SF-295 CNS
OVCAR-3 ovarian = tested on: OVCAR-3 ovarian
SNB-19 CNS = tested on: SNB-19 CNS
CAKI-1 renal = tested on: CAKI-1 renal
HCT-15 colon = tested on: HCT-15 colon
HOP-92 NSCLC = tested on: HOP-92 NSCLC
M19-MEL melanoma = tested on: M19-MEL melanoma
OVCAR-5 ovarian = tested on: OVCAR-5 ovarian
MCF7 breast = tested on: MCF7 breast
OVCAR-8 ovarian = tested on: OVCAR-8 ovarian
T-47D breast = tested on: T-47D breast
PC-3 prostate = tested on: PC-3 prostate
DU-145 prostate = tested on: DU-145 prostate
MDA-N = tested on: MDA-N
XF 498 CNS = tested on: XF 498 CNS
MDA-MB-231 breast = tested on: MDA-MB-231 breast
HS 578T breast = tested on: HS 578T breast
NCI-H23 lung = tested on: NCI-H23 lung
MDA-MB-435 = tested on: MDA-MB-435
RXF-631 renal = tested on: RXF-631 renal

CCCCN[C@H]1C2C3CC4C5CC(C42)C1(C)C53 (stereo partly drawn)
TGI (NCI-H522 lung): > 100 µM
TGI (SNB-78 CNS): > 100 µM
TGI (LOX IMVI melanoma): > 100 µM
TGI (HL-60(TB) leukemia): > 100 µM
TGI (NCI-H226 lung): > 100 µM
TGI (A498 renal): > 100 µM
TGI (SNB-75 CNS): > 100 µM
TGI (COLO 205 colon): > 100 µM
TGI (SK-MEL-28 melanoma): > 100 µM
TGI (HT29 colon): > 100 µM
TGI (RXF 393 renal): > 100 µM
TGI (IGROV1 ovarian): > 100 µM
TGI (UACC-257 melanoma): > 100 µM
TGI (DMS 114 small cell lung): > 100 µM
TGI (UO-31 renal): > 100 µM
TGI (SK-OV-3 ovarian): > 100 µM
TGI (M14 melanoma): > 100 µM
TGI (SF-268 CNS): > 100 µM
TGI (MOLT-4 leukemia): > 100 µM
TGI (HOP-18 NSCLC): > 100 µM
TGI (ACHN renal): > 100 µM
TGI (U251 CNS): > 100 µM
TGI (HOP-62 NSCLC): > 100 µM
TGI (NCI-H460 lung): > 100 µM
TGI (LXFL 529 NSCLC): > 100 µM
TGI (MALME-3M melanoma): > 100 µM
TGI (SK-MEL-5 melanoma): > 100 µM
TGI (UACC-62 melanoma): > 100 µM
TGI (A549 NSCLC): > 100 µM
TGI (K-562 leukemia): > 100 µM
TGI (SK-MEL-2 melanoma): > 100 µM
TGI (SR leukemia): > 100 µM
TGI (CCRF-CEM leukemia): > 100 µM
TGI (KM20L2 colon): > 100 µM
TGI (RPMI-8226 leukemia): > 100 µM
TGI (SN12C renal): > 100 µM
TGI (EKVX NSCLC): > 100 µM
TGI (HCT-116 colon): > 100 µM
TGI (DLD-1 colon): > 100 µM
TGI (TK-10 renal): > 100 µM
TGI (KM12 colon): > 100 µM
TGI (SW-620 colon): > 100 µM
TGI (OVCAR-4 ovarian): > 100 µM
TGI (HCC-2998 colon): > 100 µM
TGI (786-0 renal): > 100 µM
TGI (SF-539 CNS): > 100 µM
TGI (DMS 273 small cell lung): > 100 µM
TGI (SF-295 CNS): > 100 µM
TGI (OVCAR-3 ovarian): > 100 µM
TGI (SNB-19 CNS): > 100 µM
TGI (CAKI-1 renal): > 100 µM
TGI (HCT-15 colon): > 100 µM
TGI (HOP-92 NSCLC): > 100 µM
TGI (M19-MEL melanoma): > 100 µM
TGI (OVCAR-5 ovarian): > 100 µM

CC1(C)C(=O)/C=C\C(=O)C(C)(C)C(=O)/C=C\C(=O)C(C)(C)C(=O)/C=C\C(=O)C(C)(C)C(=O)/C=C\C1=O
TGI (NCI-H522 lung): 20.2 µM
TGI (SNB-78 CNS): 50 µM
TGI (LOX IMVI melanoma): > 53.8 µM
TGI (HL-60(TB) leukemia): 10.4 µM
TGI (NCI-H226 lung): > 86.5 µM
TGI (A498 renal): > 100 µM
TGI (SNB-75 CNS): 99.4 µM
TGI (COLO 205 colon): 33.2 µM
TGI (MCF7 breast): > 100 µM
TGI (SK-MEL-28 melanoma): > 58 µM
TGI (HT29 colon): 37.3 µM
TGI (RXF 393 renal): 34.1 µM
TGI (IGROV1 ovarian): 56.5 µM
TGI (UACC-257 melanoma): 63.9 µM
TGI (UO-31 renal): 56 µM
TGI (SK-OV-3 ovarian): > 96.1 µM
TGI (M14 melanoma): 48.8 µM
TGI (OVCAR-8 ovarian): 74.5 µM
TGI (SF-268 CNS): > 69.3 µM
TGI (MOLT-4 leukemia): 26.7 µM
TGI (HOP-18 NSCLC): 40.6 µM
TGI (T-47D breast): > 100 µM
TGI (PC-3 prostate): > 100 µM
TGI (ACHN renal): > 63.2 µM
TGI (DU-145 prostate): > 100 µM
TGI (U251 CNS): 64.3 µM
TGI (HOP-62 NSCLC): > 100 µM
TGI (NCI-H460 lung): > 100 µM
TGI (LXFL 529 NSCLC): 21.3 µM
TGI (MALME-3M melanoma): 33.1 µM
TGI (SK-MEL-5 melanoma): 56.2 µM
TGI (MDA-N): > 100 µM
TGI (UACC-62 melanoma): 56.3 µM
TGI (A549 NSCLC): > 100 µM
TGI (K-562 leukemia): 39.4 µM
TGI (SK-MEL-2 melanoma): 47.5 µM
TGI (SR leukemia): 27.8 µM
TGI (CCRF-CEM leukemia): 23.4 µM
TGI (XF 498 CNS): 51.4 µM
TGI (KM20L2 colon): 83.2 µM
TGI (RPMI-8226 leukemia): 24.2 µM
TGI (SN12C renal): 54.8 µM
TGI (EKVX NSCLC): 69.6 µM
TGI (HCT-116 colon): 30.8 µM
TGI (DLD-1 colon): 30.1 µM
TGI (TK-10 renal): > 68.6 µM
TGI (KM12 colon): > 72.8 µM
TGI (SW-620 colon): 28.1 µM
TGI (OVCAR-4 ovarian): 53.1 µM
TGI (MDA-MB-231 breast): > 100 µM
TGI (786-0 renal): 49.1 µM
TGI (SF-539 CNS): 55.8 µM
TGI (DMS 273 small cell lung): 37.4 µM
TGI (SF-295 CNS): 54.5 µM
TGI (HS 578T breast): > 100 µM
TGI (OVCAR-3 ovarian): 48.7 µM
TGI (SNB-19 CNS): > 71.1 µM
TGI (NCI-H23 lung): 51.6 µM
TGI (MDA-MB-435): > 100 µM
TGI (CAKI-1 renal): 31.2 µM
TGI (HCT-15 colon): 61.5 µM
TGI (HOP-92 NSCLC): 29.1 µM
TGI (M19-MEL melanoma): 40.6 µM
TGI (OVCAR-5 ovarian): 69.7 µM

CCOC(=N)CC(=O)Nc1cccc(Cl)c1
TGI (NCI-H522 lung): > 100 µM
TGI (SNB-78 CNS): > 100 µM
TGI (LOX IMVI melanoma): > 100 µM
TGI (HL-60(TB) leukemia): > 100 µM
TGI (NCI-H226 lung): > 100 µM
TGI (A498 renal): > 100 µM
TGI (SNB-75 CNS): > 100 µM
TGI (COLO 205 colon): > 100 µM
TGI (SK-MEL-28 melanoma): > 100 µM
TGI (HT29 colon): > 100 µM
TGI (RXF 393 renal): > 100 µM
TGI (IGROV1 ovarian): > 100 µM
TGI (UACC-257 melanoma): > 100 µM
TGI (UO-31 renal): > 100 µM
TGI (SK-OV-3 ovarian): > 100 µM
TGI (M14 melanoma): > 100 µM
TGI (OVCAR-8 ovarian): > 100 µM
TGI (SF-268 CNS): > 100 µM
TGI (MOLT-4 leukemia): > 100 µM
TGI (ACHN renal): > 100 µM
TGI (U251 CNS): > 100 µM
TGI (HOP-62 NSCLC): > 100 µM
TGI (NCI-H460 lung): > 100 µM
TGI (LXFL 529 NSCLC): > 100 µM
TGI (MALME-3M melanoma): > 100 µM
TGI (SK-MEL-5 melanoma): > 100 µM
TGI (UACC-62 melanoma): > 100 µM
TGI (A549 NSCLC): > 100 µM
TGI (K-562 leukemia): > 100 µM
TGI (SK-MEL-2 melanoma): > 100 µM
TGI (SR leukemia): > 100 µM
TGI (CCRF-CEM leukemia): > 100 µM
TGI (XF 498 CNS): > 100 µM
TGI (KM20L2 colon): > 100 µM
TGI (SN12C renal): > 100 µM
TGI (EKVX NSCLC): > 100 µM
TGI (HCT-116 colon): > 100 µM
TGI (DLD-1 colon): > 100 µM
TGI (TK-10 renal): > 100 µM
TGI (KM12 colon): > 100 µM
TGI (SW-620 colon): > 100 µM
TGI (OVCAR-4 ovarian): > 100 µM
TGI (HCC-2998 colon): > 100 µM
TGI (786-0 renal): > 100 µM
TGI (SF-539 CNS): > 100 µM
TGI (DMS 273 small cell lung): > 100 µM
TGI (SF-295 CNS): > 100 µM
TGI (OVCAR-3 ovarian): > 100 µM
TGI (SNB-19 CNS): > 100 µM
TGI (NCI-H23 lung): > 100 µM
TGI (CAKI-1 renal): > 100 µM
TGI (RXF-631 renal): > 100 µM
TGI (M19-MEL melanoma): > 100 µM
TGI (OVCAR-5 ovarian): > 100 µM
